The source of these data is ChEMBL document CHEMBL2086323, “Anti-adipogenic chromone glycosides from Cnidium monnieri fruits in 3T3-L1 cells” (2012).

The structures appear in SMILES notation. Active and inactive are the calls of the source. The calls are words filed in the database; no cut-off is given here.

Usually inhibition stands for the percentage by which the read-out fell short of the control.

Assay [1] relates to 3T3-L1. Put plainly: Inhibition of adipogenesis in mouse 3T3L1 cells assessed as fat accumulation at 300 uM after 8 days by oil red O-staining based by ELISA plate reader. The note with it: 3T3-L1, 192 h. The class given is functional.
In assay [2] the test system is 3T3-L1. Briefly: Inhibition of adipogenesis in mouse 3T3L1 cells assessed as fat accumulation at 100 uM after 8 days by oil red O-staining based by ELISA plate reader. It is filed as functional. Particulars: 3T3-L1, 192 h.
Assay [3] relates to 3T3-L1. Briefly: Inhibition of adipogenesis in mouse 3T3L1 cells assessed as fat accumulation at 300 uM up to 2 days by oil red O-staining based by ELISA plate reader. It is filed as functional, cell-based.
Assay [4] concerns 3T3-L1. Briefly: Inhibition of adipogenesis in mouse 3T3L1 cells assessed as fat accumulation at 300 uM after 4 to 8 days by oil red O-staining based by ELISA plate reader. The class given is functional, cell-based.
In assay [5] the test system is 3T3-L1. Briefly: Inhibition of adipogenesis in mouse 3T3L1 cells assessed as fat accumulation at 300 uM up to 4 days by oil red O-staining based by ELISA plate reader. The class given is functional, cell-based.
The test system of assay [6] is 3T3-L1. Briefly: Inhibition of adipogenesis in mouse 3T3L1 cells assessed as fat accumulation at 300 uM after 2 to 8 days by oil red O-staining based by ELISA plate reader. It is filed as functional, cell-based.
In assay [7] the test system is 3T3-L1. Put plainly: Inhibition of adipogenesis in mouse 3T3L1 cells assessed as fat accumulation at 300 uM after 2 to 4 days by oil red O-staining based by ELISA plate reader. It is filed as functional, cell-based.

Regarding `Cc1cc(=O)c2c(O)cc(O[C@@H]3O[C@H](CO)[C@@H](O)[C@H](O)[C@H]3O)cc2o1` [UNDULATOSIDE A], the inhibition at 300 µM in assay [1] was determined as 88.5%.

Turning to `Cc1cc(=O)c2c(O)c3c(cc2o1)OC(C(C)(C)O[C@@H]1O[C@H](CO)[C@@H](O)[C@H](O)[C@H]1O)C3` (stereo partly drawn) [MONNIERISIDE G], the inhibition at 300 µM in assay [1] was found to be 99.7%.

Regarding `C/C(=C/Cc1c(O)cc2oc(C)cc(=O)c2c1O)CO[C@@H]1O[C@H](CO)[C@@H](O)[C@H](O)[C@H]1O` [CNIDIMOSIDE A], the inhibition at 300 µM in assay [1] is 75%.

Regarding `C/C(=C/Cc1c(O[C@@H]2O[C@H](CO)[C@@H](O)[C@H](O)[C@H]2O)cc2oc(CO)cc(=O)c2c1O)CO` [MONNIERISIDE B], the inhibition at 300 µM in assay [1] is 68.9%.

Regarding `C/C(=C/Cc1c(O[C@@H]2O[C@H](CO)[C@@H](O)[C@H](O)[C@H]2O)cc2oc(C)cc(=O)c2c1O)CO`, in assay [1], the inhibition at 300 µM is 87%.

For `Oc1ccc(/C=C/c2cc(O)cc(O)c2)cc1` [RESVERATROL], in assay [2], the inhibition at 100 µM turned out to be 19.4%.

Regarding `C=C(C)C(Cc1c(O)cc2oc(CO)cc(=O)c2c1O)O[C@@H]1O[C@H](CO)[C@@H](O)[C@H](O)[C@H]1O` (stereo partly drawn) [MONNIERISIDE D], the inhibition at 300 µM in assay [1] was 85.5%.

Turning to `C/C(=C/Cc1c(O)cc2oc(CO)cc(=O)c2c1O)CO[C@@H]1O[C@H](CO)[C@@H](O)[C@H](O)[C@H]1O` [HYDROXYCNIDIMOSIDE A], the inhibition at 300 µM in assay [1] is 73.1%.

In the case of `C=C(C)C1Cc2c(cc3oc(CO)cc(=O)c3c2O)O1` (stereo not drawn) [UMTATIN], the inhibition at 300 µM in assay [1] turned out to be 89.4%.

As to `COc1cc2oc(C)cc(=O)c2c(O)c1C/C=C(/C)CO[C@@H]1O[C@H](CO)[C@@H](O)[C@H](O)[C@H]1O` [CNIDIMOSIDE B], the inhibition entry in assay [3], in assay [4], in assay [5], in assay [6] and in assay [7] was “Active” throughout. The inhibition at 300 µM in assay [1] was determined as 14.7%.

`C=C(C)C(O)Cc1c(O[C@@H]2O[C@H](CO)[C@@H](O)[C@H](O)[C@H]2O)cc2oc(CO)cc(=O)c2c1O` (stereo partly drawn) [MONNIERISIDE E]: the inhibition at 300 µM in assay [1] was 82.2%.

For `C=C(C)C1Cc2c(cc3oc(CO[C@@H]4O[C@H](CO)[C@@H](O)[C@H](O)[C@H]4O)cc(=O)c3c2O)O1` (stereo partly drawn) [MONNIERISIDE F], in assay [1], the inhibition at 300 µM worked out at 97.1%.

For the compound `C=C(C)C(Cc1c(O)cc2oc(C)cc(=O)c2c1O)O[C@@H]1O[C@H](CO)[C@@H](O)[C@H](O)[C@H]1O` (stereo partly drawn) [MONNIERISIDE C], in assay [1], the inhibition at 300 µM amounted to 79.9%.
